Patent US12344631B2, “C17 polar-substituted heteroaromatic synthetic triterpenoids and methods of use thereof” (REATA PHARMACEUTICALS, INC., priority 2019, dated 2025)

Tests used:
[1] = system: RAW 264.7 cells; assay: Nitric oxide suppression assay (IFNγ-induced NO production); type: cell-based, mouse; conditions: for IC50: Mus musculus, RAW264.7, RAW 264.7 cells, 2 h pretreatment, 20 ng/mL interferon gamma 24 h, nitrite by Griess, read-out: NO IC50 (nM) (Mean ± SD); for NO IC50 Relative to RTA 402 (fold) (Mean ± SD): average of ratios from replicate experiments, benchmark RTA 402
Method in brief: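 Mouse RAW 264.7 macrophages in RPMI 1640 with 0.5% FBS were pretreated with compounds for 2 h at 37° C (0.1% DMSO final), then stimulated with 20 ng/mL IFNγ for 24 h. Nitrite in the supernatant was read at 525 nm against standards and normalized to DMSO/IFNγ wells. IC50 values were fitted with dependence on WST-1 viability.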

[2] = system: AML-12 hepatocyte cell line; assay: Glutathione assay (total glutathione, GSH-Glo); type: cell-based, mouse; conditions: for EC50: Mus musculus, AML12, AML-12 cells, 24 hours, total glutathione, read-out: GSH EC50 (nM) (Mean ± SD); for GSH EC50 Relative to RTA 402 (fold) (Mean ± SD): benchmark RTA 402
Procedure: The effect of compound treatment on total glutathione levels was evaluated in the mouse AML-12 hepatocyte cell line. Glutathione—a tripeptide consisting of cysteine, glutamate, and glycine—is the major thiol-containing protein within the cell and regulates cellular redox balance. Glutathione also plays important roles in detoxification, protein glutathionylation, and iron-sulfur cluster biogenesis (Bachhawat and Yadav, 2018). Nrf2 regulates the expression of many genes involved in glutathione synthesis and metabolism, including both subunits of glutamate cysteine ligase (GCL), the enzyme that catalyzes the rate limiting step of glutathione biosynthesis (Thimmulappa et al., 2002). […] The next day, cells were treated with vehicle (DMSO) or test compound (0.03 nM to 1000 nM). Each well received a final concentration of 0.1% DMSO. Cells were incubated at 37° C., 5% CO2 for 24 hours. Total glutathione concentrations were measured using the GSH-Glo Glutathione Assay kit (Promega) according to the manufacturer's instructions. Briefly, a standard curve was prepared by serially diluting the provided glutathione solution. […] After a 30-minute incubation at room temperature, 100 μL of Luciferin detection reagent was added to all sample and standard wells and incubated for 15 minutes. Luminescence was measured using a PHERAstar plate reader. The EC50 value was determined using Excel and GraphPad Prism software. The basal concentration of glutathione was set to 0% and the highest concentration of glutathione produced following treatment with a test compound was set to 100% and a dose-response curve was generated. The dose-response curve was fit using nonlinear regression analysis and used to extrapolate the EC50 value.

[3] = system: AREc32 reporter cell line (antioxidant response element of rat Gsta2, Nrf2 target gene); assay: AREc32 luciferase reporter activation; type: cell-based, human; conditions: for AREc32 EC2X Relative to RTA 402 (fold) (Mean ± SD): average of ratios from replicate experiments, benchmark RTA 402; for AREc32 Relative to CC in Same Experiment (Mean ± SD): average of ratios from experiments with direct comparisons; for EC (2-fold): human, Arec32, 19 h, concentration increasing luminescence signal 2-fold above vehicle, nineteen hours, read-out: AREc32 EC2X (nM) (Mean ± SD)
Method in brief: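 MCF-7-derived cells carry luciferase driven by eight copies of the rat Gsta2 ARE. EC2X was extrapolated from a nonlinear fit of fold increase over vehicle.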

[4] = molecular target: CYP3A4 (Homo sapiens, UniProt P08684); assay: CYP3A4 (midazolam) inhibition in human liver microsomes; conditions: human liver microsomes; for CYP3A4 (Midazolam) % Inhibition: historical data performed under comparable conditions, 1 μM
CYP3A4, sequence (P08684 whole entry): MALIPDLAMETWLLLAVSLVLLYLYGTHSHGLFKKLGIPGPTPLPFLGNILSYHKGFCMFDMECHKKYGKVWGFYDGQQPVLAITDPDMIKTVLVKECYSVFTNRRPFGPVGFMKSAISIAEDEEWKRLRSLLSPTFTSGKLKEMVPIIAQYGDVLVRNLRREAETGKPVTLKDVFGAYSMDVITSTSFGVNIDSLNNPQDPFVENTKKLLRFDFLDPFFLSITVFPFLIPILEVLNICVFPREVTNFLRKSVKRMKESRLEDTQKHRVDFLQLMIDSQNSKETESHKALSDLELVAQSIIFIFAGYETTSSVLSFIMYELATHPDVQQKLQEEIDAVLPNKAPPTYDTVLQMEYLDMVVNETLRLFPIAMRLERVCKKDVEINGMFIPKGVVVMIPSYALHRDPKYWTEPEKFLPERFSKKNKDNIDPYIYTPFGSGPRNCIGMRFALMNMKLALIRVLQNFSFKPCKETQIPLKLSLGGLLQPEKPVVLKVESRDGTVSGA

Compound | IC50 [1] [nM] | NO IC50 Relative to RTA 402 (fold) (Mean ± SD) [1] | EC50 [2] [nM] | GSH EC50 Relative to RTA 402 (fold) (Mean ± SD) [2] | AREc32 EC2X Relative to RTA 402 (fold) (Mean ± SD) [3] | AREc32 Relative to CC in Same Experiment (Mean ± SD) ([3]; comparison compound CC1) | EC (2-fold) [3] [nM] | inhibition at 10 min, 1 μM ([4]; human, probe midazolam (5 μM)) [%] | AREc32 Relative to CC in Same Experiment (Mean ± SD) ([3]; comparison compound CC2) | CYP3A4 (Midazolam) % Inhibition [4] [%]
Cc1nnc([C@]23CCC(C)(C)C[C@H]2[C@H]2C(=O)C=C4[C@@]5(C)C=C(C#N)C(=O)C(C)(C)[C@@H]5CC[C@@]4(C)[C@]2(C)CC3)o1 [CC1, reference compound] | 2.05 | 0.78 ± 0.10 | 1.09 ± 0.13 | 0.70 ± 0.12 | 0.79 ± 0.24 | 1.00 | 10.6 ± 2.73 | 20.7 | – | –
CC1(C)CC[C@]2(c3noc(C(F)F)n3)CC[C@]3(C)[C@H](C(=O)C=C4[C@@]5(C)C=C(C#N)C(=O)C(C)(C)[C@@H]5CC[C@]43C)[C@@H]2C1 [Compound T41] | 9.84 ± 3.52 | 2.79 ± 0.64 | 4.85 ± 0.36 | 2.38 ± 0.29 | 1.52 ± 0.19 | – | 24.2 ± 3.36 | – | – | –
CC1(C)CC[C@]2(c3nc(C(F)F)no3)CC[C@]3(C)[C@H](C(=O)C=C4[C@@]5(C)C=C(C#N)C(=O)C(C)(C)[C@@H]5CC[C@]43C)[C@@H]2C1 [Compound T43] | 6.45 ± 1.29 | 1.90 ± 0.49 | 3.29 ± 0.55 | 1.60 ± 0.05 | 0.62 ± 0.09 | – | 9.92 ± 2.32 | – | 1.09 ± 0.09 | –
CC1(C)CC[C@]2(c3nnc(C(F)F)o3)CC[C@]3(C)[C@H](C(=O)C=C4[C@@]5(C)C=C(C#N)C(=O)C(C)(C)[C@@H]5CC[C@]43C)[C@@H]2C1 [Compound T44] | 4.24 ± 2.23 | 1.24 ± 0.04 | 2.05 ± 0.64 | 1.04 ± 0.06 | 0.57 ± 0.12 | 0.91 ± 0.21 | 8.62 ± 0.45 | – | – | –
CC1(C)CC[C@]2(c3nnc(C(F)(F)F)o3)CC[C@]3(C)[C@H](C(=O)C=C4[C@@]5(C)C=C(C#N)C(=O)C(C)(C)[C@@H]5CC[C@]43C)[C@@H]2C1 [Compound T45] | 12.9 ± 6.38 | 3.81 ± 0.34 | 8 ± 1.37 | 4.14 ± 0.35 | 1.95 ± 0.57 | – | 29.1 ± 2.09 | – | – | –
CCc1nnc([C@]23CCC(C)(C)C[C@H]2[C@H]2C(=O)C=C4[C@@]5(C)C=C(C#N)C(=O)C(C)(C)[C@@H]5CC[C@@]4(C)[C@]2(C)CC3)o1 [Compound T46] | 5.44 ± 2.81 | 1.60 ± 0.29 | 2.39 ± 0.29 | 1.24 ± 0.17 | 1.60 ± 0.44 | – | 24 ± 1.5 | – | – | –
COC(=O)[C@]12CCC(C)(C)C[C@H]1[C@H]1C(=O)C=C3[C@@]4(C)C=C(C#N)C(=O)C(C)(C)[C@@H]4CC[C@@]3(C)[C@]1(C)CC2 [RTA 402, Bardoxolone methyl, reference compound] | – | – | – | – | – | – | – | – | – | 48.4
CC1(C)CC[C@]2(NC(=O)C(C)(F)F)CC[C@]3(C)[C@H](C(=O)C=C4[C@@]5(C)C=C(C#N)C(=O)C(C)(C)[C@@H]5CC[C@]43C)[C@@H]2C1 [RTA 408, omaveloxolone, reference compound] | – | – | – | – | – | – | – | – | – | 56.6
